Results on 2 compounds are retold here after patent US20050124694A1, “Method of accelerating metabolism of alcohol” (priority 2003, published 2005).

The structures appear in SMILES notation.

This assay in a line: Breath sample analysis for alcohol (BAC) in volunteers after 5 glasses of wine. The conditions noted are these: for BAC AFTER 30 MIN.: 30 min after 5 glasses of wine on an empty stomach together with a fifty gram dose; for BAC AFTER 30 MIN. / BAC AFTER 60 MIN / BAC AFTER 90 MIN / BAC AFTER 120 MIN / BAC AFTER 150 MIN / BAC AFTER 180 MIN / BAC AFTER 210 MIN / BAC AFTER 240 MIN: breath sample; for BAC AFTER 60 MIN: 60 min after 5 glasses of wine on an empty stomach together with a fifty gram dose; for BAC AFTER 90 MIN: 90 min after 5 glasses of wine on an empty stomach together with a fifty gram dose; for BAC AFTER 120 MIN: 120 min after 5 glasses of wine on an empty stomach together with a fifty gram dose; for BAC AFTER 150 MIN: 150 min after 5 glasses of wine on an empty stomach together with a fifty gram dose; for BAC AFTER 180 MIN: 180 min after 5 glasses of wine on an empty stomach together with a fifty gram dose; for BAC AFTER 210 MIN: 210 min after 5 glasses of wine on an empty stomach together with a fifty gram dose; for BAC AFTER 240 MIN: 240 min after 5 glasses of wine on an empty stomach together with a fifty gram dose; for Effect on the consumer's BAC as measured by the test, compared with no administration: fifty gram dose with 5 glasses of wine. Type of assay: in vivo, human. On the procedure:
A commercially available instrument was used to analyze breath samples provided by volunteers for alcohol. TEN volunteers each consumed 5 GLASSES OF WINE on an empty stomach together with a FIFTY GRAM dose of one or more compounds of formula (I) as tabulated below. A control group of volunteers WAS not given any of the compound. The volunteers then provided _[…] breath samples for analysis at intervals of 30 minutes. THE COMPOUNDS GIVEN AND THE SAC LEVELS READ AT EACH SAMPLING ARE TABULATED BELOW

In the case of `NC(=O)CC[C@H](N)C(=O)O` [III], the “BAC AFTER 30 MIN.” value was found to be 0.09%, the “BAC AFTER 60 MIN” value amounted to 0.08%, the “BAC AFTER 90 MIN” value amounted to 0.08% and the “BAC AFTER 120 MIN” value turned out to be 0.07%. Moreover, the “BAC AFTER 150 MIN” value amounted to 0.07%, the “BAC AFTER 180 MIN” value came out at 0.05%, the “BAC AFTER 210 MIN” value stood at 0.04% and the “BAC AFTER 240 MIN” value is recorded as 0.03%. The “Effect on the consumer's BAC as measured by the test, compared with no administration” value is listed as “helps to diminish the consumer's BAC as measured by the test more rapidly than without such administration”.

With `CC(=O)O[C@H](CC(=O)[O-])C[N+](C)(C)C` [compound II], the “BAC AFTER 30 MIN.” value is 0.10%, the “BAC AFTER 60 MIN” value was 0.09%, the “BAC AFTER 90 MIN” value stood at 0.08% and the “BAC AFTER 120 MIN” value was found to be 0.08%. Further, the “BAC AFTER 150 MIN” value was 0.07%, the “BAC AFTER 180 MIN” value turned out to be 0.06%, the “BAC AFTER 210 MIN” value was 0.04% and the “BAC AFTER 240 MIN” value is on record as 0.03%. For the same compound, the “Effect on the consumer's BAC as measured by the test, compared with no administration” value is reported as “helps to diminish the consumer's BAC as measured by the test more rapidly than without such administration”.
